Calls of active or inactive are those of the source.
Assays:
[1] = biological target: Heat shock protein HSP 90-alpha (Homo sapiens, UniProt P07900); experiment: Luminescence-based dose response biochemical high throughput screening assay for inhibitors of the Heat Shock Protein 90 (HSP90). [Related pubchem assays: 1831 (Summary AID.), 1846 (Confirmation screen.), 1789 (Primary screen.)]
[2] = biological target: Dual specificity tyrosine-phosphorylation-regulated kinase 1A (Rattus norvegicus, UniProt Q63470); format: biochemical, Homo sapiens
[3] = Luminescent dose response cell-based high throughput screening assay for inhibitors of the Janus kinase 2 mutant JAK2V617F. [Related pubchem assays: 1446 (Primary screen.), 1521 (Confirmation assay.), 1486 (Counter screen.)]; format: functional
[4] = biological target: 5-hydroxytryptamine receptor 1A (Homo sapiens, UniProt P08908); format: functional
[5] = biological target: Cytochrome P450 2C19 (Homo sapiens, UniProt P33261); experiment: Cytochrome panel assay with activity outcomes. Panel member name: p450-cyp2c19 Compounds with AC50 equal or less than 10 uM are considered active; format: functional; conditions: read-out: AC50
[6] = biological target: T1, RNA-binding protein pos-1 (Caenorhabditis elegans, UniProt G5EF15); experiment: inhibitors of POS-1/mex-3 RNA binding, dose response, biochemical, fluorescence polarization (AID 1964);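 further: purified POS-1 fused to maltose binding protein made in E. coli; potency of compounds blocking POS-1 binding to fluorescent RNA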
T1 sequence (G5EF15 whole entry): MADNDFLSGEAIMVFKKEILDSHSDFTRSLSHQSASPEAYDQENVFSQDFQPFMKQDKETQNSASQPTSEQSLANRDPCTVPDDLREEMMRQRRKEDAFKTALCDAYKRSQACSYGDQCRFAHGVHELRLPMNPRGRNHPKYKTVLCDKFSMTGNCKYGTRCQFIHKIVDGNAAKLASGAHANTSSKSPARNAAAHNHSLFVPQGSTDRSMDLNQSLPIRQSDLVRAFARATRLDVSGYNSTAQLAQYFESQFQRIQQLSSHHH

[7] = biological target: T2, Zinc finger protein mex-5 (Caenorhabditis elegans, UniProt Q9XUB2); experiment: MEX-5/TCR-2 RNA interaction inhibitors, dose response, biochemical, C. elegans, fluorescence polarization (AID 1960)
T2 sequence (Q9XUB2 whole entry): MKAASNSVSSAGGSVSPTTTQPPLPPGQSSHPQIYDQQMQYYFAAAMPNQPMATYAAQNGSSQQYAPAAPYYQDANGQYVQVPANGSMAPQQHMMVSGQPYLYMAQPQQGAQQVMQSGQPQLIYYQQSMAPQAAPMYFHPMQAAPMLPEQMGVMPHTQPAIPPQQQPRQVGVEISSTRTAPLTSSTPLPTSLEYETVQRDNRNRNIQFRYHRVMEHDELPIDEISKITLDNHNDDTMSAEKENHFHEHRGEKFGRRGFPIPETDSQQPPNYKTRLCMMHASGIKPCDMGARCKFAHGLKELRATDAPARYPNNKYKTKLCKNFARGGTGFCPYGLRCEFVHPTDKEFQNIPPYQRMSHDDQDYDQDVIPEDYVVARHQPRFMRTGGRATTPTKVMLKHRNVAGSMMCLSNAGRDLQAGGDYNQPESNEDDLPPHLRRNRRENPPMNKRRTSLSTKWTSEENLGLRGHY

[8] = biological target: 14-3-3 protein gamma (Homo sapiens, UniProt P61981); experiment: modulators of 14-3-3 gamma client binding – dose response (AID 711); format: functional
[9] = biological target: T3, Polyadenylate-binding protein 1 (Homo sapiens, UniProt P11940); experiment: PABP1 MLLE–PAM2 interaction inhibitors, dose response, miRNA deadenylation inhibitor project, biochemical, fluorescence polarization, Cy5-PAM2 peptide, secondary (AID 602260); format: functional; conditions: read-out: IC50_Mean
[10] = biological target: T4, Aminopeptidase N (Plasmodium falciparum FcB1/Columbia, UniProt O96935); experiment: P. falciparum M1AAP inhibitors, biochemical, fluorogenic H-Leu-NHMec substrate, 1536-well (AID 1445); set-up: species or system Plasmodium falciparum 3D7, 3D7
T4 sequence (O96935 whole entry): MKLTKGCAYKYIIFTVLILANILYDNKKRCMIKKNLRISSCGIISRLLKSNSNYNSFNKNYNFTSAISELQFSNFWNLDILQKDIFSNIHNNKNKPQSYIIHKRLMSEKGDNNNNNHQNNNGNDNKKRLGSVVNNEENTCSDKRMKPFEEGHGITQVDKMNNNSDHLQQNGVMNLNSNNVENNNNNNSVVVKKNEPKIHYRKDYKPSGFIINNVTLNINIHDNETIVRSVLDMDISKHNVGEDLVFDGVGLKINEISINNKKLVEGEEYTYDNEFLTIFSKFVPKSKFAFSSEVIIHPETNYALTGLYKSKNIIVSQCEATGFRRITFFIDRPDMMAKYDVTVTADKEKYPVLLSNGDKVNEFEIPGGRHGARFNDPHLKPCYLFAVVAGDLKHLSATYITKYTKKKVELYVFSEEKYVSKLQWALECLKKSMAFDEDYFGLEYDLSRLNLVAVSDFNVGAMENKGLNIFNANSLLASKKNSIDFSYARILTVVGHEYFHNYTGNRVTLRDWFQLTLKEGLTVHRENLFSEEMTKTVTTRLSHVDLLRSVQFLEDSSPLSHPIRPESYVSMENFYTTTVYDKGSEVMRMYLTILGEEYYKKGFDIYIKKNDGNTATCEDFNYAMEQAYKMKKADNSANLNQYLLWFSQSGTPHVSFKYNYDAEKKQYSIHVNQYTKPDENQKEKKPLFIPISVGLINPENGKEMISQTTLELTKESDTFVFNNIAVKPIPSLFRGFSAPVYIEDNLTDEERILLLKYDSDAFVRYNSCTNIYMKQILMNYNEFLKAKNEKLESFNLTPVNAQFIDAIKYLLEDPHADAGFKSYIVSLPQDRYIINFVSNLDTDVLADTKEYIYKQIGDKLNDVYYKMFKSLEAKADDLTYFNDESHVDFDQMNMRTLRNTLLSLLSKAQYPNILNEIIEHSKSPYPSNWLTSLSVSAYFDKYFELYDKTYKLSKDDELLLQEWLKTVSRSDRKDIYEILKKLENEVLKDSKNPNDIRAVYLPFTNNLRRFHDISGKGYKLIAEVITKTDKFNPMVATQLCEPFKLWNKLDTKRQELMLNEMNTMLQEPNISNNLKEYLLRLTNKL

[11] = biological target: Estrogen receptor beta (Homo sapiens, UniProt Q92731); experiment: ERβ–SRC-3 coactivator interaction inhibitors, confirmation, orthogonal assay, biochemical, ELISA, streptavidin-HRP readout (AID 1060)
[12] = biological target: T5, Estrogen receptor (Homo sapiens, UniProt P03372);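 further: potency for inhibiting coactivator peptide recruitment to the receptor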
T5 sequence (P03372 whole entry): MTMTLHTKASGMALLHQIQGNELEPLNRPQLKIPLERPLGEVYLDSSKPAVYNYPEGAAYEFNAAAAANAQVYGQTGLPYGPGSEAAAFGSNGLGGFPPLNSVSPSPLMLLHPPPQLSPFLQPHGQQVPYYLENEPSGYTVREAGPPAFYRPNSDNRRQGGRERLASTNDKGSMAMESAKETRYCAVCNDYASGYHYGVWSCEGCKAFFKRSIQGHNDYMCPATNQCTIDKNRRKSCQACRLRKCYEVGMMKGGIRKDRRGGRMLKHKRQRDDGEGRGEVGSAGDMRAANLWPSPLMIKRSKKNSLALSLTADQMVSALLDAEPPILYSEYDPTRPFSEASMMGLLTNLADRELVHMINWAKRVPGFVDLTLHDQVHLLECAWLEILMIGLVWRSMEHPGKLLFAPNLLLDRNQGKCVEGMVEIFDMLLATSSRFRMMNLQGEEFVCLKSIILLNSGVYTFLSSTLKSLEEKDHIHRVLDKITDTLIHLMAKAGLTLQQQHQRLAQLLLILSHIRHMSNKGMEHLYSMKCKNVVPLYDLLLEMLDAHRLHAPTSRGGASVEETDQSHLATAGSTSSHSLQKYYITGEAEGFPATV

[13] = biological target: T3, Polyadenylate-binding protein 1; experiment: PABP1 MLLE–PAM2 binding inhibitor potency, dose response, biochemical, fluorescence polarization, FITC-PAM2 peptide (AID 602259); format: functional; conditions: read-out: IC50_Mean
[14] = biological target: Bifunctional protein GlmU (Mycobacterium tuberculosis, UniProt P9WMN3); experiment: Inhibitors of Mycobacterial Glucosamine-1-phosphate acetyl transferase (GlmU). Secondary screen.; set-up: species or system Mycobacterium tuberculosis H37Rv
[15] = Vero cell cytotoxicity, dose response, cytotoxicity control for Vif-APOBEC3G degradation inhibitor project, Vero cells (AID 1117358); format: functional; conditions: Human immunodeficiency virus 1, Vero
[16] = biological target: T6, Protein Tat (Human immunodeficiency virus type 1 group M subtype B (isolate HXB2)(HIV-1), UniProt P04608); format: functional;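 further: tat binding to TAR RNA read out by fluorescence polarization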
T6 sequence (P04608 whole entry): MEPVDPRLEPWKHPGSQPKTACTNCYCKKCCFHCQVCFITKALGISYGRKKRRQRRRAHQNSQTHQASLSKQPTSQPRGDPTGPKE

[17] = cytotoxicity toward NIH3T3 fibroblasts, dose response, counter-screen, cell-based, ATP luminescence, mouse fibroblasts (AID 2010); format: functional;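 further: cells exposed to compound for about 90 hours before reading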
[18] = inhibitors of intracellular T. cruzi replication, confirmation, NIH3T3 host cells, beta-gal luminescence (AID 2044); format: functional, cell-based;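 further: intracellular parasites grown in NIH/3T3 mouse fibroblasts as host cells; luminescent beta-galactosidase reporter signal from transgenic T. cruzi replicating inside host cells; inhibitors lower the luminescence signal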
[19] = biological target: Photoreceptor-specific nuclear receptor (Homo sapiens, UniProt Q9Y5X4); experiment: NR2E3 inverse agonists, dose response, biochemical, TR-FRET (AID 463256); format: functional
[20] = biological target: Peroxisome proliferator-activated receptor gamma/Nuclear receptor corepressor 2 (Homo sapiens, UniProt P37231+Q9Y618); experiment: Counterscreen for NR2E3 inverse agonists: TR-FRET-based biochemical high throughput dose response assay to identify inverse agonists of the interaction between peroxisome proliferator-activated receptor gamma (PPARg) and nuclear receptor co-repressor 2 (NCOR2).; format: functional
[21] = test system: HEK293; experiment: inhibitors of LMP1-driven NF-kB reporter, dose response, cell-based, HEK293, luciferase, cherry-pick (AID 588343); format: functional; conditions: Homo sapiens
[22] = biological target: Luciferin 4-monooxygenase (Photinus pyralis, UniProt P08659); experiment: Counter Screen for Luciferase-based Assay Positives. [Related pubchem assays: 620, 618, 411 ]
[23] = test system: HT-1080; experiment: cytotoxicity in HT1080 fibrosarcoma cells, cell-based, fluorescence readout (AID 620); format: functional; conditions: Homo sapiens
[24] = HepG2 cell cytotoxicity, dose response, cytotoxicity control, cherry-picked samples (AID 1159577); format: functional, cell-based
[25] = P. falciparum Dd2 growth inhibitors, dose response, SYBR Green, dry powder samples, set 9 (AID 1159568); format: functional, cell-based
[26] = P. falciparum Dd2 growth inhibitors, dose response, SYBR Green, cherry-picked samples (AID 1159567); format: functional, cell-based
[27] = P. falciparum 3D7-ScDHODH growth inhibitors, dose response, SYBR Green, dry powder samples (AID 1159570); format: functional, cell-based;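 further: parasite growth measured after 72 hours of compound exposure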
[28] = P. falciparum Dd2 growth inhibitors, dose response, SYBR Green, dry powder samples (AID 1159566); format: functional, cell-based;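 further: potency for growth inhibition with lower SYBR green DNA signal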
[29] = P. falciparum ATP4 D1247Y mutant growth inhibitors, dose response, NITD609-resistant line, SYBR Green, dry powder (AID 1159571); format: functional, cell-based;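 further: parasites synchronized at ring stage by sorbitol before testing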
[30] = HepG2 cell cytotoxicity, dose response, cytotoxicity control, plate reader, dry powder samples (AID 1159569); format: functional, cell-based;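 further: inhibitor potency with signal falling toward the positive control level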

T3 sequence (P11940 whole entry): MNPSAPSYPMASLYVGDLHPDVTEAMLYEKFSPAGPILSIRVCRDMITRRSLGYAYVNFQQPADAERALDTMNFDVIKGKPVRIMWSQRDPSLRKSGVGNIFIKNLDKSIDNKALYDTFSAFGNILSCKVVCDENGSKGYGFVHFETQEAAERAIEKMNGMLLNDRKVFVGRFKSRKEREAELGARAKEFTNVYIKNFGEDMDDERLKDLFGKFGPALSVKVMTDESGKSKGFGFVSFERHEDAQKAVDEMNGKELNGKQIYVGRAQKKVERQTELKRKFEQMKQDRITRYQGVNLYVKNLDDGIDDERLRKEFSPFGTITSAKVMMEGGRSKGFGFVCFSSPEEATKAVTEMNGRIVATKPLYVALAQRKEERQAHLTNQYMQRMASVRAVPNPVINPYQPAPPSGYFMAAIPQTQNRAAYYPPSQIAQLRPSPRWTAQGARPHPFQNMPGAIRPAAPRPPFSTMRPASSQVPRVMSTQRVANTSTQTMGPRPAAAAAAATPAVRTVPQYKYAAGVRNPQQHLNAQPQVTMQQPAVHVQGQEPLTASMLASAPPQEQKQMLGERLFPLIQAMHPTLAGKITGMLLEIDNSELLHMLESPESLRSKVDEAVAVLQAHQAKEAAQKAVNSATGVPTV
Sequence of 5-hydroxytryptamine receptor 1A (P08908 whole entry): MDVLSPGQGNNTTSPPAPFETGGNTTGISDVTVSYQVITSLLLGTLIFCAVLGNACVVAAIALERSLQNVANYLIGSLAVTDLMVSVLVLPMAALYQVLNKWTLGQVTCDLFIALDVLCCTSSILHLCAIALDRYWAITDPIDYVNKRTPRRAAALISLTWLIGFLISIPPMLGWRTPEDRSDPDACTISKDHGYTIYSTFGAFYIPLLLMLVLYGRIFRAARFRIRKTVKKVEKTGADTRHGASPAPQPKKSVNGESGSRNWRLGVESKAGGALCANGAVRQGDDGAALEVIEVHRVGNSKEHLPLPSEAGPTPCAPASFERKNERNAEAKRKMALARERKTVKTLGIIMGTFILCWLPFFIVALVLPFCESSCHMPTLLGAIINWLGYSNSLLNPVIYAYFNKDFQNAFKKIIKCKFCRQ
Sequence of Photoreceptor-specific nuclear receptor (Q9Y5X4 whole entry): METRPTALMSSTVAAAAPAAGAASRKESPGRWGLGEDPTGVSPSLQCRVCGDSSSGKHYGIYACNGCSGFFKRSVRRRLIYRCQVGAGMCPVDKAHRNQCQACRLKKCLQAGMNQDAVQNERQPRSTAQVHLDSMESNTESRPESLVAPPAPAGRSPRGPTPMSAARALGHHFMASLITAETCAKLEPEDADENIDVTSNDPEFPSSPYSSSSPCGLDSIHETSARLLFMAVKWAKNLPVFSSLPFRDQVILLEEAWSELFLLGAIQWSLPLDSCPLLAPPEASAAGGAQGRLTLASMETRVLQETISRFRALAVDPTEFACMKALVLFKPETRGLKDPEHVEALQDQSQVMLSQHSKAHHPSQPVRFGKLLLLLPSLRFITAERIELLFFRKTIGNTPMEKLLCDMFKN
Sequence of 14-3-3 protein gamma (P61981 whole entry): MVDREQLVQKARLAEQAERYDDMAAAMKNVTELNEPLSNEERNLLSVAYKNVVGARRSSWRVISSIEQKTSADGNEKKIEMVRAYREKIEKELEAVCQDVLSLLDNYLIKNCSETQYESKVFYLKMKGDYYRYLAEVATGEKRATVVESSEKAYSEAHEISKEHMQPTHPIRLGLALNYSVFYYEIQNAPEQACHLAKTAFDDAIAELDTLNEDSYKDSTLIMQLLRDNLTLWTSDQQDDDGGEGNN
Sequence of Estrogen receptor beta (Q92731 whole entry): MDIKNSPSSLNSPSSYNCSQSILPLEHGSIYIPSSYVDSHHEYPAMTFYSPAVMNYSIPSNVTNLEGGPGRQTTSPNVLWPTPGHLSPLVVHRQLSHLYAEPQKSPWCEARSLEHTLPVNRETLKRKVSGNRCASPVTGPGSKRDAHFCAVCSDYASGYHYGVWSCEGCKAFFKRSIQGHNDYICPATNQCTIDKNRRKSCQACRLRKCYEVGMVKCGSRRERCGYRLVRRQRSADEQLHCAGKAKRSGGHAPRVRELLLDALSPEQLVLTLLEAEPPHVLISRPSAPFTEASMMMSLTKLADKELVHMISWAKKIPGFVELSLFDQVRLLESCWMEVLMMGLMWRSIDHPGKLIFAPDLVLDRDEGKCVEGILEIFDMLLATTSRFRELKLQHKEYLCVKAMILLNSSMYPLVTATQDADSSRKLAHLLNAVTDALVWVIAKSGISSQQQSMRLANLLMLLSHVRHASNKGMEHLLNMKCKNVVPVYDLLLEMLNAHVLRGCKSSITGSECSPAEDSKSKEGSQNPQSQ
Sequence of Cytochrome P450 2C19 (P33261 whole entry, the tested form may be a part): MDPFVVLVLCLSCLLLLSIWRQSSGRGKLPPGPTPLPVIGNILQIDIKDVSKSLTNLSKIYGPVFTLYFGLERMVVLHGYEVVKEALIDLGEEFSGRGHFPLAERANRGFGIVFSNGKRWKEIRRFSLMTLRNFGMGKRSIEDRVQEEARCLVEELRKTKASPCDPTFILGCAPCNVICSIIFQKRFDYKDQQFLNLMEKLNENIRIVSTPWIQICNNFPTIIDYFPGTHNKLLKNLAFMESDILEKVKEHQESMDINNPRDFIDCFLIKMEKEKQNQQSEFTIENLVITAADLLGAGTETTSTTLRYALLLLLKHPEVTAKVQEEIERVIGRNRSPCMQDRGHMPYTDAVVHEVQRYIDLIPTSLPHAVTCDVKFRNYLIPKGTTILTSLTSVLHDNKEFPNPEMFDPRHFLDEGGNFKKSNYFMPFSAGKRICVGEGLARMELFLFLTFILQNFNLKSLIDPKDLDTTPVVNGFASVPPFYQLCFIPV
Sequence of Bifunctional protein GlmU (P9WMN3 whole entry): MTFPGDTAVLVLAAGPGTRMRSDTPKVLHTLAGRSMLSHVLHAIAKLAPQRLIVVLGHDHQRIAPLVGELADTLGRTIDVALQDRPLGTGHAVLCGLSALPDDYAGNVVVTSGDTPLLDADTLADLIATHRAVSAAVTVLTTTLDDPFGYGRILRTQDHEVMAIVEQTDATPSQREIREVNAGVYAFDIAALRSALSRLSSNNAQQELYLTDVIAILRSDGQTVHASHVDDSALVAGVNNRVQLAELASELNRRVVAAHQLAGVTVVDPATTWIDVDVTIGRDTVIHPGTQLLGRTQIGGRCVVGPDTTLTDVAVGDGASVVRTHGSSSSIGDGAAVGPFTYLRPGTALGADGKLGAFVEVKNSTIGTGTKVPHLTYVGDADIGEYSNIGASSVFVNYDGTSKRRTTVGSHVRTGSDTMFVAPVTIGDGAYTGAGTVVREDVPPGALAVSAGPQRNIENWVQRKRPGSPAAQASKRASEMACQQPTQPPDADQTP
Sequence of Luciferin 4-monooxygenase (P08659 whole entry): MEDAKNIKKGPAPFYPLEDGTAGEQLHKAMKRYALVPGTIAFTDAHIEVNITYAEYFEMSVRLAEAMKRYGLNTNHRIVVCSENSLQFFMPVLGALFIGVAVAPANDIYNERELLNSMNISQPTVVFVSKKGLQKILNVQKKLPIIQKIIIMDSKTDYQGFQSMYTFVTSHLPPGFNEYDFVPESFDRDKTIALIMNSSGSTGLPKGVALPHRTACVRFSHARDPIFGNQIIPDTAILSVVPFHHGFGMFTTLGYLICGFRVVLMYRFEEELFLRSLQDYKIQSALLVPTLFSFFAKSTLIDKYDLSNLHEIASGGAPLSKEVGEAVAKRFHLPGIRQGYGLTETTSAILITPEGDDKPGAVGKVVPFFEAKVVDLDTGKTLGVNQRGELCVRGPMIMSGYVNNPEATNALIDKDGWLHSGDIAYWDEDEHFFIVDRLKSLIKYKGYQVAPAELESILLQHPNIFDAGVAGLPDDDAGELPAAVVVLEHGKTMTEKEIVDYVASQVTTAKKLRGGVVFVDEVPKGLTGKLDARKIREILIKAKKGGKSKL

Compound: COc1ccccc1NC(=O)c1coc(=O)c(Br)c1
- IC50 [1]: 658 nM (active)

Compound: CS(=O)(=O)c1ccc(-c2cn3cc(C(=O)O)ccc3n2)cc1
- IC50 [1]: 2500 nM (active)
- AC50 [2]: 1.96 µM (active)

Compound: COc1ccc(-c2cc(-c3cc(C)ccc3O)[nH]n2)cc1
- IC50 [3]: 1.83 µM (active)

Compound: CCCCN(CC)Cc1ccc(CNC(=O)Nc2ccc(OC)cc2OC)o1
- EC50 [4]: > 50 µM (not active)
- AC50 [5]: 11.2 µM (inconclusive)

Compound: COc1ccc(N(CC(=O)NC2CCCC2)C(=O)Cn2nnc(-c3ccc(C)cc3)n2)cc1OC
- EC50 [4]: > 50 µM (not active)

Compound: Cc1cc(=O)oc2c(CN3CCC(C)CC3)c(O)c(Cl)cc12
- EC50 [6]: > 300 µM (not active)
- EC50 [7]: > 300 µM (not active)
- IC50 [8]: 45.6 µM (not active)
- IC50 [9]: > 66 µM (inactive)
- IC50 [10]: 32.7 µM (active)
- IC50 [11]: 5.23 µM (not active)
- IC50 [12]: 23.7 µM (active)
- IC50 [13]: 37.7 µM (inactive)

Compound: COc1ccc(OCc2cc(C(=O)O)c(C)o2)cc1
- IC50 [14]: 51.7 µM (active)

Compound: Cc1noc(/C=C/c2ccco2)c1S(=O)(=O)N1CCC(C(=O)N2c3ccccc3CC2C)CC1 (stereo not given)
- CC50 [15]: 39.7 µM (active)
- IC50 [16]: > 100 µM (active)
- EC50 [17]: > 60 µM (not active)
- EC50 [18]: 1.66 µM (active)

Compound: CC(=O)c1ccc(-c2ccc(C(=O)Nc3nc(C)c(C(C)=O)s3)o2)cc1
- IC50 [19]: 8.01 µM (active)
- IC50 [20]: 9.53 µM (active)

Compound: COc1cccc(C(=O)Nc2nc3ccccc3[nH]2)c1
- CC50 [15]: > 40 µM (active)
- AC50 [21]: 3.29 µM (active)
- EC50 [22]: 750 nM (active)
- EC50 [23]: > 50 µM (not active)

Compound: Cc1cccc(-c2ccc([C@@H]3[C@@H]4CN(C(=O)CN(C)C)C[C@H]3N4)cc2)c1
- AC50 [24]: 32.1 µM (active)
- AC50 [25]: 4.19 µM (active)
- AC50 [26]: 3.46 µM (active)

Compound: C[C@@H]1CN([C@@H](C)CO)C(=O)c2cccc(NC(=O)c3nc4ccccc4s3)c2O[C@H]1CN(C)C(=O)Nc1ccc(C(F)(F)F)cc1
- AC50 [27]: 274 nM (active)
- AC50 [26]: 1.06 µM (active)
- AC50 [28]: 245 nM (active)
- AC50 [29]: 323 nM (active)
- AC50 [30]: > 100 µM (inactive)

Compound: CCCC(=O)N1CCC2(CC1)CN(S(=O)(=O)c1ccc(C)cc1)[C@@H](CO)c1[nH]c3cc(OC)ccc3c12
- AC50 [27]: 137 nM (active)
- AC50 [25]: 0.182 µM (active)
- AC50 [26]: < 0.3 µM (active)
- AC50 [28]: 98.6 nM (active)
- AC50 [29]: 115 nM (active)
- AC50 [30]: 77.5 µM (active)

— ChEMBL document CHEMBL1201862, “PubChem BioAssay data set” (2004)
